Marks after values point to notes of the source that are not given here.

The source of these data is patent US6340705B1, “Use of α-linolenic acid metabolites for treatment or prevention of cancer” (Monsanto Technology, LLC, priority 1999, dated 2002).

The subject of this assay is Min/+ mouse model of intestinal cancer. As to the kind of experiment: Intestinal polyp formation in the Min/+ mouse model of intestinal cancer. It counts as in vivo. Also on record: Avg. large intestine tumor size: unit not given here. Conditions: Min/+ mice; for Total small intestine tumors/group / Avg. large intestine tumors/mouse / Avg. small intestine tumor size / Avg. small intestine tumors/mouse / Avg. large intestine tumor size / Avg. large intestine tumor load / Avg. small intestine tumor load / Total Avg. overall tumor load / Total Avg. overall tumor size / Total Avg. tumors/mouse: 10 g/day human equivalent dose (3% wt.) or sulindac 320 ppm; for Total small intestine tumors/group / Avg. large intestine tumors/mouse / Avg. small intestine tumor size / Avg. small intestine tumors/mouse / Avg. large intestine tumor size / Avg. large intestine tumor load / Avg. small intestine tumor load / Total large intestine tumors/group / Total large intestine tumors/group, figure in brackets (animals bearing tumors/animals in group) / Total Avg. overall tumor load / Total Avg. overall tumor size / Total Avg. tumors/mouse: seven weeks; for Avg. large intestine tumors/mouse / Avg. small intestine tumor size / Avg. small intestine tumors/mouse / Avg. large intestine tumor size / Avg. large intestine tumor load / Avg. small intestine tumor load / Total Avg. overall tumor load / Total Avg. overall tumor size / Total Avg. tumors/mouse: mean ± SEM; for Avg. large intestine tumor size: only animals bearing colonic tumors; for Avg. large intestine tumor load / Avg. small intestine tumor load: tumor number × tumor size; for Total large intestine tumors/group / Total large intestine tumors/group, figure in brackets (animals bearing tumors/animals in group): fatty acid ethyl ester 10 g/day human equivalent dose (3% wt.) in US17 diet or sulindac 320 ppm; for Total Avg. overall tumor load / Total Avg. overall tumor size / Total Avg. tumors/mouse: large and small intestine; for effect on polyp number relative to the US17 control: differences not significant. On the procedure: The efficacy of select n-3 and n-6 polyunsaturated fatty acids was evaluated in the Min/+ mouse model of intestinal cancer. The following fatty acid ethyl esters were tested for their effect on intestinal polyp formation: 1) ALA-EE; 2) SDA-EE; 2) EPA-EE; 4) DHA-EE; 5) GLA-EE ([…], 18:3 n-6); and 6) CLA-EE (conjugated linoleic acid; c9t11-18:2 (77%)+c9c11-18:2 (18%)+other isomers (5%)).
These fatty acid ethyl esters were added to the US17 diet to provide 10 g/day human equivalent dose (3% wt.). The NSAID, sulindac (320 ppm), served as the positive control. In order to maintain a 17% fat (37 en%) content in the US17 diet, oleic acid (18:1 n-9) was removed from the US17 diet in an amount equal to the amount of the fatty acid ethyl ester that was added. Mice were received at approximately five weeks of age and were fed the test diets upon receipt. After seven weeks on the respective test diet, the mice were sacrificed and the intestinal polyps were counted and measured.

As to `CC1=C(CC(=O)O)c2cc(F)ccc2/C1=C\c1ccc([S+](C)[O-])cc1` (stereo not drawn) [Sulindac, sulindac], the “Total small intestine tumors/group” value was 29, the “Avg. large intestine tumors/mouse” value is reported as 0.2 ± 0.2^cd, the “Avg. small intestine tumor size” value was 1.25 ± 0.29^ab mm and the “Avg. small intestine tumors/mouse” value was 3.2 ± 1.1^d. For the same molecule, the “Avg. large intestine tumor size” value is recorded as 2.00 ± 0.00^ab, the “Avg. large intestine tumor load” value is reported as 0.44 ± 0.29^cd mm, the “Avg. small intestine tumor load” value is recorded as 3.64 ± 1.12^d mm and the “Total large intestine tumors/group” value is 2. Besides, the “Total large intestine tumors/group, figure in brackets (animals bearing tumors/animals in group)” value is on record as 2/9; the “Total Avg. overall tumor load” value is listed as 3.64 ± 1.27^d mm; the “Total Avg. overall tumor size” value is given as 1.04 ± 0.08^d mm; the “Total Avg. tumors/mouse” value is 3.4 ± 1.2^d.

Turning to conjugated linoleic acid [CLA], the “Total small intestine tumors/group” value came to 409, the “Avg. large intestine tumors/mouse” value was 1.1 ± 0.4^abcd, the “Avg. small intestine tumor size” value is listed as 1.24 ± 0.03^ab mm and the “Avg. small intestine tumors/mouse” value was 45.4 ± 8.2^a. Further, the “Avg. large intestine tumor size” value was 3.03 ± 0.52^a, the “Avg. large intestine tumor load” value was 3.47 ± 1.29^ab mm, the “Avg. small intestine tumor load” value was 57.84 ± 11.70^a mm and the “Total large intestine tumors/group” value came to 10. Besides, the “Total large intestine tumors/group, figure in brackets (animals bearing tumors/animals in group)” value is recorded as 5/9; the “Total Avg. overall tumor load” value is listed as 61.30 ± 12.41^a mm; the “Total Avg. overall tumor size” value is on record as 1.28 ± 0.04^ab mm; the “Total Avg. tumors/mouse” value is on record as 46.6 ± 8.3^a. In addition, the “effect on polyp number relative to the US17 control” value (10 g/day human equivalent dose) is on record as “appeared to increase polyp number”.

Turning to `CCCCC/C=C\C/C=C\C/C=C\CCCCC(=O)O` [GLA, γ-linolenic acid], the “Total small intestine tumors/group” value is given as 421, the “Avg. large intestine tumors/mouse” value is recorded as 1.2 ± 0.4^abc, the “Avg. small intestine tumor size” value is given as 1.30 ± 0.04^ab mm and the “Avg. small intestine tumors/mouse” value was 46.8 ± 7.1^a. The “Avg. large intestine tumor size” value was 2.57 ± 0.30^ab, the “Avg. large intestine tumor load” value was 3.25 ± 1.34^abc mm, the “Avg. small intestine tumor load” value is reported as 61.62 ± 10.36^a mm and the “Total large intestine tumors/group” value worked out at 11. Also, the “Total large intestine tumors/group, figure in brackets (animals bearing tumors/animals in group)” value was 6/9; the “Total Avg. overall tumor load” value was 64.84 ± 11.05^a mm; the “Total Avg. overall tumor size” value is 1.33 ± 0.04^a mm; the “Total Avg. tumors/mouse” value is listed as 48.0 ± 7.4^a. In addition, the “effect on polyp number relative to the US17 control” value (10 g/day human equivalent dose) is reported as “appeared to increase polyp number”.

In the case of α-linolenic acid [ALA], the “Total small intestine tumors/group” value was found to be 364, the “Avg. large intestine tumors/mouse” value is recorded as 0.8 ± 0.3^bcd, the “Avg. small intestine tumor size” value is on record as 1.23 ± 0.04^ab mm and the “Avg. small intestine tumors/mouse” value is recorded as 36.4 ± 6.3^ab. For the same molecule, the “Avg. large intestine tumor size” value was 2.75 ± 0.46^ab, the “Avg. large intestine tumor load” value is given as 2.15 ± 0.83^bcd mm, the “Avg. small intestine tumor load” value is given as 45.67 ± 8.66^ab mm and the “Total large intestine tumors/group” value was 8. Moreover, the “Total large intestine tumors/group, figure in brackets (animals bearing tumors/animals in group)” value is 5/10; the “Total Avg. overall tumor load” value was 45.97 ± 8.88^ab mm; the “Total Avg. overall tumor size” value is recorded as 1.21 ± 0.03^bc mm; the “Total Avg. tumors/mouse” value is 37.2 ± 6.6^ab. Further, the “effectiveness in inhibiting polyp formation and development in the large intestine” value (10 g/day human equivalent dose) is reported as “marginally efficacious”.
